From patent publication US11078188B2, “Dihydroquinoxaline bromodomain recognition protein inhibitor, preparation method and use thereof” (SHANGHAI INSTITUTE OF MATERIA MEDICA, CHINESE ACADEMY OF …, priority 2017, dated 2021)

What was measured:
3A4 = 3A4 (Homo sapiens (Human), UniProt P08684); test: Direct inhibition test (DI test), CYP 3A4; format: in vitro ADME; details: human liver microsomes 0.2 mg/ml, 20 min; for Direct inhibition rate (%) 3A4, second value: second of two values a/b (two 3A4 probes midazolam, testosterone; assignment not given); for Direct inhibition rate (%) 3A4, first value: first of two values a/b (two 3A4 probes midazolam, testosterone; assignment not given)
Description: (§1) The system which was 100 μl of human liver microsomes (final concentration: 0.2 mg/ml) was used for direct inhibition incubation. The system contained NADPH (final concentration: 1 mM), 10 μl compound, positive inhibitor cocktail (ketoconazole, 10 μl, quinidine 10 μl, sulfaphenazole 100 μl, naphthoflavone 10 μl, tranylcypromine 1000 μl), negative control 10 μl DMSO and mixed probe substrate (midazolam 10 μl, testosterone 100 μl, dextromethorphan 10 μl, diclofenac 20 μl, phenacetin 100 μl, mephenytoin 100 μl). The reaction was stopped after the system was incubated for 20 min. The relative activity of the enzyme was calculated by measuring the relative amount of production of the metabolite.

CYP3A4 = CYP3A4 (Homo sapiens (Human), UniProt P08684); test: Direct inhibition test (DI test), CYP 3A4; format: in vitro ADME; details: human liver microsomes 0.2 mg/ml, first of two values a/b (two 3A4 probes midazolam, testosterone; assignment not given), read-out: Direct inhibition rate (%) 3A4, first value
Description: as §1

CYP2C19 = CYP2C19 (Homo sapiens (Human), UniProt P33261); test: Direct inhibition test (DI test), CYP 2C19; format: in vitro ADME; details: human liver microsomes 0.2 mg/ml, read-out: Direct inhibition rate (%) 2C19
Description: as §1

BRD4 (I) = BRD4 (I) (Homo sapiens (Human), UniProt O60885); test: Fluorescence anisotropy (FA) binding test on BRD4 (I); details: BRD4 (I) 10 nM, fluorescent (+)-JQ1 substrate 5 nM, read-out: BRD4 (1) IC50
Description: The binding activity of the compound to BRD4 (I) was tested using a fluorescence anisotropy (FA) method. The principle of FA test is to calculate and analyze the fluorescence polarization values in the horizontal and vertical directions by detecting the change of molecular weight before and after the interaction of fluorescein-labeled small molecules with other molecules. If the equilibrium of the binding between the fluorescently labeled small molecule and macromolecule is established, it will move slowly when excited, and the measured fluorescence polarization value will increase. If the binding between the fluorescently labeled small molecule and the macromolecule is replaced by another ligand, its rotation or flipping speed in the free state will be faster, and the emitted light will be depolarized relative to the plane of the excitation light, and the measured polarized light value will decrease to calculate the fluorescence anisotropy of the sample.
Expression and purification of the BRD4(I) recognition domain: colonies of newly transformed plasmid DNA from E. coli BL21(DE3)-condon plus-RIL cells were cultivated in 50 mL of Terrific Broth medium containing 50 μg/mL kanamycin and 34 μg/mL chloramphenicol at 37° C. overnight (starting culture). The starting culture was then diluted 100-fold in 1 L of fresh TB medium and the cells were grown at 37° C. to an optical density of about 0.8 at OD600 and then the temperature was lowered to 16° C. When the system was equilibrated at 16° C., the optical density at OD600 was approximately 1.2, and protein expression was induced with 0.2 mmol of isopropyl-β-D-thiogalactopyranoside (IPTG) overnight at 16° C. Bacteria were harvested by centrifugation (4000×g, 20 minutes, 4° C.) and stored as a pellet at −80° C. The cells expressing His 6-tagged protein was resuspend in lysis buffer [50 mmol 4-hydroxyethylpiperazineethanesulfonic acid (HEPES), 25° C., pH 7.5, 500 mmol NaCl, 10 mmol imidazole, 5% glycerol and freshly added 0.5 mmol of tris(2-carboxyethyl)phosphine hydrochloride (TCEP) and 1 mmol of phenylmethanesulfonyl fluoride (PMSF)] and lysed at 4° C. using JN 3000PLUS high pressure homogenizer (JNBIO-Guangzhou, China). The lysate was clarified by centrifugation (12,000×g for 1 hour at 4° C.) and applied to a nickel-nitriloacetate agarose column. The column was washed once with 50 mL of wash buffer containing 30 mmol of imidazole. The protein was eluted using imidazole in an elution buffer in a stepwise elution (100-250 mmol imidazole in 50 mmol HEPES, 25° C., pH 7.5, 500 mmol NaCl, 5% glycerol). All fractions were collected and monitored by SDS-polyacrylamide gel electrophoresis (Bio-Rad Criterion TM Precast Gels, 4-12% Bis-Tris, 1.0 mm, from Bio-Rad, CA). After 1 mmol of dithiothreitol (DTT) was added, the eluted proteins were treated with tobacco […] virus (TEV) protease overnight at 4° C. to remove the His6 tag. The protein was concentrated and further purified by size exclusion chromatography on a Superdex 75 16/60 HiLoad gel filtration column. The samples were monitored by SDS-polyacrylamide gel electrophoresis and concentrated to 8-10 mg/mL with gel filtration buffer, 10 mmol Hepes pH 7.5, 500 mM NaCl, 1 mmol DTT, and used for protein binding assays and crystallization.
The fluorogenic substrate was (+)-JQ1 linked to a fluorescent molecule and the working concentration was 5 nM. BRD4 (I) protein had 10 nM of working concentration and the total reaction system was 40 μL. The buffer was 50 mM 4-hydroxyethylpiperazineethanesulfonic acid (HEPES) pH 7.4, 150 mM NaCl, 0.5 mM 3[(3-cholamidopropyl)dimethylammonio]propanesulfonate (CHAPS). […] The final concentration of DMSO was chosen to be 0.2%, taking into account the solubility of the compound and the effect of DMSO on the assay. All measurements were made under these conditions. […]

CYP enzyme = test: Mechanistic inhibition test (TDI test); format: in vitro ADME; details: human liver microsomes 0.2 mg/ml; mechanism inhibition if kobs greater than 200
Description: The system which was 200 μl of human liver microsomes (final concentration: 0.2 mg/ml) was used for mechanistic inhibition incubation. The system contained 10 μl compound, mixed positive inhibitor (Troleandomycin 10 μl, Paroxetine 10 μl, Tienilic acid 10 μM, Furafylline 10 μl) or 10 μl negative control PRO. After NADPH (final concentration: 1 mM) or PBS was added, the system was incubated for 0 min, 5 min, 10 min and 30 min, then NADPH (final concentration: 1 mM) and mixed probe substrate (Midazolam 5 μM, Testosterone 50 μl, Dextromethophan 5 μM, Diclofenac 10 μl, Phenacetin 5 0 μM, S-(+)-mephenytoin 50 μl) were added and incubated for 10 min. Then the reaction was stopped. The test for positive inhibitor CYP2C19 was carried out alone, the inhibitor S-(+)-fluoxetine was 100 μM. The enzyme activity was calculated by measuring the relative production amount of metabolite. kobs was calculated.
(§2) HLM Clint (μl/min/mg) refers to the clearance rate of compounds in human liver microsomes having a unit of μl/min/mg; mLM Clint (μl/min/mg) refers to the clearance rate of compounds in mouse liver microsomes having a unit of μl/min/mg; HLM t1/2 (min) refers to the half-life of the compound in human liver microsomes having a unit of minutes; mLM t1/2 (min) refers to the half-life of the compound in mouse liver microsomes having a unit of minutes. TDI means that the mechanism inhibition test of compounds on CYP enzyme evaluates whether the compound has time-dependent inhibition of the enzyme.

[1] = Metabolic stability in human liver microsomes; format: in vitro ADME; details: human liver microsomes 0.5 mg/ml, 1 μM compound, NADPH; for microsomal CLint at 1 μM: read-out: HLM Clint; for half-life at 1 μM: read-out: HLM t1/2
Description: The system which was 150 μl of human liver microsomes (final concentration: 0.5 mg/ml) was used for metabolic stability incubation. The system contained reduced coenzyme II (NADPH) (final concentration: 1 mM) and 1 μM compound, positive control or negative control. The reaction was terminated with acetonitrile containing (imiprozine, batch number: 3221; tinidazole, given) at 0 min, 5 min, 10 min, and 30 min, respectively. The mixture was vortexed for 10 min, centrifuged at 15000 rpm for 10 min, and 50 μl of the supernatant was injected into a 96-well plate. The metabolic stability of the compound was calculated by measuring the relative reduction in the original medicament.
as §2

2D6 = 2D6 (Homo sapiens (Human), UniProt P10635); test: Direct inhibition test (DI test), CYP 2D6; format: in vitro ADME; details: human liver microsomes 0.2 mg/ml, 20 min
Description: as §1

[2] = Metabolic stability in mouse liver microsomes; format: in vitro ADME; details: for microsomal CLint at 1 μM: read-out: mLM Clint
2C9 = 2C9 (Homo sapiens (Human), UniProt P11712); test: Direct inhibition test (DI test), CYP 2C9; format: in vitro ADME; details: human liver microsomes 0.2 mg/ml, 20 min
Description: as §1

CYP2D6 = CYP2D6 (Homo sapiens (Human), UniProt P10635); test: Direct inhibition test (DI test), CYP 2D6; format: in vitro ADME; details: human liver microsomes 0.2 mg/ml, read-out: Direct inhibition rate (%) 2D6
Description: as §1

CYP2C9 = CYP2C9 (Homo sapiens (Human), UniProt P11712); test: Direct inhibition test (DI test), CYP 2C9; format: in vitro ADME; details: human liver microsomes 0.2 mg/ml, read-out: Direct inhibition rate (%) 2C9
Description: as §1

[3] = test system: human myeloma cells MM.1S; test: MM.1S cell viability, CCK-8 method; format: cell-based
Description: The MM.1S cell line was tested for cell viability. The test methods were as follows: human myeloma cells MM.1S were treated with compound for 72 h, and the proliferation inhibition effect and degree of the compound were detected by CCK-8 method.

[4] = test system: MM.1S nude mice xenografts; test: Growth of MM.1S nude mice xenografts in vivo; parameters: species or system Balb/C nude mice; details: 50 mg/kg qd/14 po
Description: Balb/C nude mice (6 weeks, female, Beijing Huafukang Biotechnology Co., Ltd.) were purchased, and the animals were conditioned for about one week before the test. MM.1S cells were cultured in vitro, and the cells in logarithmic growth phase were resuspended in serum-free RPMI1640 medium to adjust the cell concentration. The cell suspension was subcutaneously injected into forefoot armpit of the Balb/C nude mice with a syringe, and each animal was injected with 150 μL (8.0×10^6/mouse). When the average tumor volume grew to about ˜150 mm^3, the animals were divided into 4 groups containing solvent control group, 50 mg/kg OTX-015 group, and 20 and 50 mg/kg compound 6 groups by the randomized block method and each group contained six animals. […] During the administration period, the tumor diameter was measured twice a week, the body weight of the animals was weighed, the living state of the animals was observed, and abnormal conditions were recorded.
The formula for calculating tumor volume (TV): TV=½×a×b^2, where a and b represent length and width, respectively.
The relative tumor volume (RTV) was calculated based on the measured results, and the calculation formula was: RTV=Vt/V0. Wherein V0 was the measured tumor volume at the time of administration by cage (ie, d0), and Vt was the tumor volume at each measurement.
The relative tumor proliferation rate T/C (%) was calculated based on the measured results, and the calculation formula was as follows: T/C (%)=(TRTV/CRTV)×100%, TRTV: treatment group RTV; CRTV: negative control group RTV.

DLBCL cells = details: cited from earlier work

Chain of 3A4 (P08684 whole entry): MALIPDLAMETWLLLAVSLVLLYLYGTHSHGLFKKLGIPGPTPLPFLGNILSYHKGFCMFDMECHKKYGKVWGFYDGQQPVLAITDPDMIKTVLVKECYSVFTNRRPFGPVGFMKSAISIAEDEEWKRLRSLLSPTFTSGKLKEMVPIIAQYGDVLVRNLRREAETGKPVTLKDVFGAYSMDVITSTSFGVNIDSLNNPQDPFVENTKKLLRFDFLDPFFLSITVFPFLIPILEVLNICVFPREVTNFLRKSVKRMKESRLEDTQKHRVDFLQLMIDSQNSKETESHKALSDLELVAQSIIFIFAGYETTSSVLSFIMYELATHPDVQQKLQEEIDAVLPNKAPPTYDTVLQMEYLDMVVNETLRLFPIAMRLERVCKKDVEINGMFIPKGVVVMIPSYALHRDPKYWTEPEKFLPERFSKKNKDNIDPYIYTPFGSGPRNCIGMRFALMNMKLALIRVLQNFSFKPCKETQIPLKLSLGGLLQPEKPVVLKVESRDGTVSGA
Chain of CYP2C19 (P33261 whole entry): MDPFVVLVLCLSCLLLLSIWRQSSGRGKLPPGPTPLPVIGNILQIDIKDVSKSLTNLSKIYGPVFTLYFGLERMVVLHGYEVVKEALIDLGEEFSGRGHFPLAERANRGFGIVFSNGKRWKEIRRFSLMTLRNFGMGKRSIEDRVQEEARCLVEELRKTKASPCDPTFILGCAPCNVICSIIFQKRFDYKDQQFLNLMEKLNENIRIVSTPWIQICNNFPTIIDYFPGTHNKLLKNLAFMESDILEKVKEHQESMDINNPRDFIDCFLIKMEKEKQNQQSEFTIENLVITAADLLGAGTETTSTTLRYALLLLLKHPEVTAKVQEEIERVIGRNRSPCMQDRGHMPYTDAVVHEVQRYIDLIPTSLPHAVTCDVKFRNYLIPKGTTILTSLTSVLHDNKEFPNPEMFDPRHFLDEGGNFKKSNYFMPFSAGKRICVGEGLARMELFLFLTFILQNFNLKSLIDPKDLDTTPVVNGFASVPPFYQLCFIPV
Chain of CYP2C9 (P11712 whole entry): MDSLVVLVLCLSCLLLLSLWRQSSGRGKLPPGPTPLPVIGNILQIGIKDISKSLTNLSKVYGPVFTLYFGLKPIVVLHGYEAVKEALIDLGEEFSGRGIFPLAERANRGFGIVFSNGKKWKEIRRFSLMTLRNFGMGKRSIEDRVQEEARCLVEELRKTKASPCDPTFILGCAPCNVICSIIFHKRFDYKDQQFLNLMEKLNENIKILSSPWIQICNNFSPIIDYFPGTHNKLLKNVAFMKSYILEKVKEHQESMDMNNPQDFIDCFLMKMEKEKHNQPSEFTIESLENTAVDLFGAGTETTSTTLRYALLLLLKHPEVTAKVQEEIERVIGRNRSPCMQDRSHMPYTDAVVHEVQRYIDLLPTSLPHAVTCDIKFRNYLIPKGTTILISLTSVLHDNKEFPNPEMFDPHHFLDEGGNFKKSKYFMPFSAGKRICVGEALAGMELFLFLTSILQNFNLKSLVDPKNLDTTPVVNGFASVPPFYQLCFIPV
Chain of CYP3A4 (P08684 whole entry): as the sequence (P08684 whole entry) above
Chain of CYP2D6 (P10635 whole entry): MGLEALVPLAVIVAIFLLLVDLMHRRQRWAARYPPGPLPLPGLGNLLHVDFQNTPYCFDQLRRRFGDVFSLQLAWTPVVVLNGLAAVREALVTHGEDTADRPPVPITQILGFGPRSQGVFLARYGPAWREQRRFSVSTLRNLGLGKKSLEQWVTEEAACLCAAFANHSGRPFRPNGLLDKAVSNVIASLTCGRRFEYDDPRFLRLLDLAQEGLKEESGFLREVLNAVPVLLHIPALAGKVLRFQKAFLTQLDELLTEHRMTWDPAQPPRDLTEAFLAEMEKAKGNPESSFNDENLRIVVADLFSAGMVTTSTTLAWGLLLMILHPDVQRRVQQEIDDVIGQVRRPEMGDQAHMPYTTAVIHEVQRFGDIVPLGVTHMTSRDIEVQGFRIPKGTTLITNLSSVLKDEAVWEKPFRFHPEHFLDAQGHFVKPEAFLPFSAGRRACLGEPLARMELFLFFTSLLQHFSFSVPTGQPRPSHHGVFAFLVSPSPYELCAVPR
Chain of 2C9 (P11712 whole entry): as the sequence (P11712 whole entry) above
Chain of 2D6 (P10635 whole entry): as the sequence (P10635 whole entry) above

C[C@@H]1C(=O)N(C)c2ccc(-c3nc(C(=O)N4CCCN(C)CC4)nn3-c3ccccc3)cc2N1C1CCCC1 [Example 8]
Direct inhibition rate (%) 3A4, second value (3A4): 6%
inhibition at 20 min (CYP3A4): 5%
inhibition at 20 min (CYP2C19): 35%
IC50 (BRD4 (I)): 9.8 nM
TDI (CYP enzyme): no
microsomal CLint at 1 μM [1]: 58 µL/min/mg
half-life at 1 μM [1]: 23.9 min
Direct inhibition rate (%) 2D6 (2D6): no
half-life at 1 μM ([2]; read-out: MLM t1/2): 22.4 min
microsomal CLint at 1 μM [2]: 62 µL/min/mg
Direct inhibition rate (%) 2C9 (2C9): no

Cc1ccc(-n2nc(C(=O)N3CCN(C)CC3)cc2-c2ccc3c(c2)N(C2CCCC2)[C@H](C)C(=O)N3C)cc1 [Example 26]
Direct inhibition rate (%) 3A4, second value (3A4): 37%
inhibition at 20 min (CYP3A4): 35%
inhibition at 20 min (CYP2C19): 34%
IC50 (BRD4 (I)): 5.1 nM
TDI (CYP enzyme): no
microsomal CLint at 1 μM [1]: 66 µL/min/mg
half-life at 1 μM [1]: 21 min
inhibition at 20 min (CYP2D6): 4%
half-life at 1 μM ([2]; read-out: MLM t1/2): 27 min
microsomal CLint at 1 μM [2]: 52 µL/min/mg
inhibition at 20 min (CYP2C9): 39%

Cc1ccc(-n2nc(C(=O)N3C[C@@H](C)N[C@@H](C)C3)cc2-c2ccc3c(c2)N(C2CCCC2)[C@H](C)C(=O)N3C)cc1 [Example 27]
Direct inhibition rate (%) 3A4, first value (3A4): 24%
Direct inhibition rate (%) 3A4, second value (3A4): 47%
inhibition at 20 min (CYP2C19): 19%
IC50 (BRD4 (I)): 4.9 nM
TDI (CYP enzyme): no
microsomal CLint at 1 μM [1]: 55 µL/min/mg
half-life at 1 μM [1]: 25 min
inhibition at 20 min (CYP2D6): 6%
half-life at 1 μM ([2]; read-out: half-lives in mouse liver microsomes): 248 min
microsomal CLint at 1 μM [2]: 6 µL/min/mg
inhibition at 20 min (CYP2C9): 27%

Cc1ccc(-n2nc(C(=O)N3CCN(C)CC3)nc2-c2ccc3c(c2)N(C2CC2)C(C)C(=O)N3C)cc1 (stereo not drawn) [Example 33]
Direct inhibition rate (%) 3A4, first value (3A4): 7%
Direct inhibition rate (%) 3A4, second value (3A4): 12%
IC50 (BRD4 (I)): 15.7 nM
TDI (CYP enzyme): no
HLM Clint [1]: 22 µL/min/mg
HLM t1/2 [1]: 62 min
IC50 ([3]; 72 h treatment, CCK-8): 10.7 ± 2.59 nM
inhibitory activity against the MM.1S cell line (in words) ([3]; compared with positive (+)-JQ1): better inhibitory activity against the MM.1S cell line than the positive (+)-JQ1
MLM t1/2 [2]: 107 min
mLM Clint [2]: 13 µL/min/mg

Cc1sc2c(c1C)C(c1ccc(Cl)cc1)=N[C@@H](CC(=O)Nc1ccc(O)cc1)c1nnc(C)n1-2 [OTX-015, reference compound]
RTV (mean SD) [4]: 603.15
T/C (%) [4]: 49.90%
TV (mm^3, mean) d0 ([4]; d0 (at start of administration)): 184.48 mm^3
TV (mm^3, mean) d14 ([4]; d14): 886.75 mm^3
IC50 (DLBCL cells): 192 nM
